Blank lines part the entries; values can stand above or below the compound they belong to.
Columns and labels:
Adenosine receptor A2a [1] = biological target: T1, Adenosine receptor A2a (Homo sapiens, UniProt P29274); test: Antagonist activity at human adenosine 2A receptor expressed in T-REx-CHO cells preincubated for 1 hr followed by NECA stimulation and measured after 30 mins by Eu-cAMP tracer based TR-FRET assay; assay type: functional, cell-based; settings: filed as antagonist, time 1.5 hrs
[2] = Half life in mouse at 2 mg/kg, iv or 10 mg/kg, po measured up to 24 hrs by LC-MS/MS analysis; assay type: ADME, organism-based; settings: in vivo
Adenosine receptor A2a [3] = biological target: T1, Adenosine receptor A2a; test: Antagonist activity at human adenosine 2A receptor expressed in HEK293 cells assessed as reduction in NECA-induced cAMP level incubated for 15 mins by HTRF assay; assay type: functional, cell-based
[4] = Cmax in mouse at 1 mg/kg, iv measured up to 24 hrs by LC-MS/MS analysis; assay type: ADME, organism-based; set-up: route intravenous, dose 1 mg/kg, time <=24; settings: in vivo
Homo sapiens [5] = species: Homo sapiens; test: Selectivity ratio of IC50 for human adenosine 2B receptor expressed in HEK293 cells to IC50 for human adenosine 2A receptor expressed in HEK293 cells; assay type: cell-based
Homo sapiens [6] = species: Homo sapiens; test: Selectivity ratio of IC50 for human adenosine A1 receptor expressed in CHO cells to IC50 for human adenosine 2A receptor expressed in HEK293 cells; assay type: cell-based
Homo sapiens [7] = species: Homo sapiens; test: Selectivity ratio of IC50 for human adenosine A3 receptor expressed in CHO cells to IC50 for human adenosine 2A receptor expressed in HEK293 cells; assay type: cell-based
Adenosine receptor A1 = biological target: T2, Adenosine receptor A1 (Homo sapiens, UniProt P30542); test: Antagonist activity at human adenosine A1 receptor expressed in CHO cells by radioligand competition binding assay; assay type: cell-based
T2 sequence (P30542 whole entry): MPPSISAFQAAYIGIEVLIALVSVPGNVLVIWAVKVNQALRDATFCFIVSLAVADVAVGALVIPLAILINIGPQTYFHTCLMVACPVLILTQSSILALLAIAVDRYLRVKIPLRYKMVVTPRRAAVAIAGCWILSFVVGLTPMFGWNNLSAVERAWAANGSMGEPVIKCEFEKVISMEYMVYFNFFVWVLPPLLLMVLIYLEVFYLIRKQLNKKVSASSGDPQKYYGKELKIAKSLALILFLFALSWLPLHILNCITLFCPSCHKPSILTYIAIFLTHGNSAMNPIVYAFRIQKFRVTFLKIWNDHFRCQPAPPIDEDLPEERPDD

Adenosine receptor A2b [8] = biological target: T3, Adenosine receptor A2b (Homo sapiens, UniProt P29275); test: Antagonist activity at human adenosine A2b receptor expressed in HEK293 cells by radioligand competition binding assay; assay type: cell-based
T3 sequence (P29275 whole entry): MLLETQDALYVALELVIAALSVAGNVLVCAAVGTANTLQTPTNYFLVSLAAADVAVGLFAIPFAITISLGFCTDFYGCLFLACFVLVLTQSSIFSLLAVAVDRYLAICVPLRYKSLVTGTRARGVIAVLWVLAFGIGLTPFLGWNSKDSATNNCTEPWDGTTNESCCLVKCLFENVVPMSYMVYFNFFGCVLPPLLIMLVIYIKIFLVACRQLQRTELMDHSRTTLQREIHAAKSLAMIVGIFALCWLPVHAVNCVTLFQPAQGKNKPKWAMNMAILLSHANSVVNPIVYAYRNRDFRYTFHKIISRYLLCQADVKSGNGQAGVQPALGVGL

Adenosine receptor A3 = biological target: T4, Adenosine receptor A3 (Homo sapiens, UniProt P0DMS8); test: Antagonist activity at human adenosine A3 receptor expressed in HeLa cells by radioligand competition binding assay; assay type: cell-based
T4 sequence (P0DMS8 whole entry): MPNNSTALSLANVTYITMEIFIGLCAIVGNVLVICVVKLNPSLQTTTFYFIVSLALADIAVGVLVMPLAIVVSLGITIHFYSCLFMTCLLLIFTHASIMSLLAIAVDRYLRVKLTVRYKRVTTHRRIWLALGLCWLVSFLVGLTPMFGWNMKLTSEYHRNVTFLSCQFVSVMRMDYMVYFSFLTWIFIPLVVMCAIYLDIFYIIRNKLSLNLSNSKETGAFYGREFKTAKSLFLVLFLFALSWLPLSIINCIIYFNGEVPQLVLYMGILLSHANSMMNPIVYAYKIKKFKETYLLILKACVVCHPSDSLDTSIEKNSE

Adenosine receptor A2a [9] = biological target: T5, Adenosine receptor A2a (Mus musculus, UniProt Q60613); test: Antagonist activity at adenosine 2A receptor in BALB/c mouse T cells assessed as reduction in CGS-21680-induced suppression of IL-2 secretion incubated for 24 hrs by ELISA; assay type: cell-based, T cell
Adenosine receptor A2a [10] = biological target: T5, Adenosine receptor A2a; test: Antagonist activity at adenosine 2A receptor in BALB/c mouse T cells assessed as reduction in CGS-21680-induced suppression of IFN-gamma secretion incubated for 24 hrs by ELISA; assay type: cell-based, T cell
Adenosine receptor A2a [11] = biological target: T1, Adenosine receptor A2a; test: Antagonist activity at adenosine 2A receptor in human PBMC assessed as reversal of NECA/CD3/CD28-stimulated IL-2 release incubated for 24 hrs
Adenosine receptor A2a [12] = biological target: T1, Adenosine receptor A2a; test: Antagonist activity at adenosine 2A receptor in human blood assessed as reversal of NECA/LPS-stimulated TNF-alpha release incubated for 5 hrs; assay type: tissue-based
Adenosine receptor A2a [13] = biological target: T1, Adenosine receptor A2a; test: Inhibition of FRET-labelled CA200645 binding to human adenosine 2A receptor expressed in CHO cells incubated for 2 hr by TR-FRET assay; assay type: cell-based
Adenosine receptor A2b [14] = biological target: T3, Adenosine receptor A2b; test: Inhibition of FRET-labelled CA200645 binding to human adenosine 2B receptor expressed in CHO cells incubated for 2 hr by TR-FRET assay; assay type: cell-based
Homo sapiens [15] = species: Homo sapiens; test: Selectivity ratio of Ki for human adenosine A1 receptor to Ki for human Adenosine 2A receptor
Homo sapiens [16] = species: Homo sapiens; test: Selectivity ratio of Ki for human adenosine A3 receptor to Ki for human Adenosine 2A receptor
Adenosine receptor A2a [17] = biological target: T1, Adenosine receptor A2a; test: Antagonist activity at adenosine 2A receptor in human whole blood assessed as reduction in phosphorylated CREB level preincubated for 20 mins followed by adenosine receptor agonist NECA addition and measured after 30 mins by flow cytometric analysis; assay type: functional, tissue-based

T1 sequence (P29274 whole entry): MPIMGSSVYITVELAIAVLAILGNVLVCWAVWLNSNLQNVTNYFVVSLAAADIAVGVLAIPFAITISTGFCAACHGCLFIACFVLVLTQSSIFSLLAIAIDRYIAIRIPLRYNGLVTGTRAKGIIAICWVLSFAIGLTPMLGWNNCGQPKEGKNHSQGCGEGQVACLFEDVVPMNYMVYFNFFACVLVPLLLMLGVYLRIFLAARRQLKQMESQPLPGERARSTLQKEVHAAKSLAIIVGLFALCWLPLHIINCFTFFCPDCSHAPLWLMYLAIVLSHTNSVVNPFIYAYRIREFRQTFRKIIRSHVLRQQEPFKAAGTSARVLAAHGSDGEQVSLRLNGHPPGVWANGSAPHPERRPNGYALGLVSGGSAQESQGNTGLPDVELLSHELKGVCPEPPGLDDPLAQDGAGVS
T5 sequence (Q60613 whole entry): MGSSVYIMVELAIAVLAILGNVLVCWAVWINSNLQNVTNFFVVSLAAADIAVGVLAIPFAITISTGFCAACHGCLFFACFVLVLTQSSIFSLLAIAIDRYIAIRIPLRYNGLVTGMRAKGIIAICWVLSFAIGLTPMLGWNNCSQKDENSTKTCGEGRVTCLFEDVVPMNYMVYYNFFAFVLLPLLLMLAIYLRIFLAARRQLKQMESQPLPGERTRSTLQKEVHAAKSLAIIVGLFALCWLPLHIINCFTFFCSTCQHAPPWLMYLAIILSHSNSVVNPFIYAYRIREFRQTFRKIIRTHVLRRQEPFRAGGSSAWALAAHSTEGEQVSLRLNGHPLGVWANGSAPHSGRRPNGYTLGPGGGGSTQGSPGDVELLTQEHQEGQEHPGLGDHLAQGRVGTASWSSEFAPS

Kb (Adenosine receptor A2a [1]): < 100 nM
SMILES: COCc1cccc(Cn2cc(-c3cc(-c4ccco4)nc(N)n3)nn2)n1

half-life [2]: 55.2 min
SMILES: COc1ccc(C2CCOCC2)c2ncc(NC(=O)N3CCC(C)(O)CC3)nc12

IC50 (Adenosine receptor A2a [3]): < 10 nM | half-life [2]: 69 min | Cmax [4]: 2100 ng/mL
SMILES: COc1ccc(N2CCOCC2)c2nc(NC(=O)c3cccc(N4CCOCC4)c3)[nH]c12
Ratio IC50 (Homo sapiens [5]): 1000 | Ratio IC50 (Homo sapiens [6]): 1000 | Ratio IC50 (Homo sapiens [7]): 1000

half-life [2]: 50.3 min | Cmax [4]: 2650 ng/mL
SMILES: COc1ncc(N2CCOCC2)c2nc(NC(=O)N3CCC(C)(O)CC3)[nH]c12

Ki (Adenosine receptor A1): 2500 nM | Ki (Adenosine receptor A2b [8]): 1000 nM | Ki (Adenosine receptor A3): 5000 nM
SMILES: Nc1nc(-n2cccn2)nc(-n2cccn2)c1Br [PBF-509]

IC50 (Adenosine receptor A2a [9]): 40 nM | IC50 (Adenosine receptor A2a [10]): 40 nM
SMILES: COc1ccc(-c2cnn(C)c2)c2nc(NC(=O)c3ccc(Cn4ccnc4)cc3)[nH]c12

IC50 (Adenosine receptor A2a [11]): 77 nM | IC50 (Adenosine receptor A2a [12]): > 200 nM
SMILES: Cc1cccnc1CNC(=O)c1cnc(-c2ccco2)nc1N

half-life [2]: 52 min | Cmax [4]: 1320 ng/mL
SMILES: COc1ccc(-c2cnn(C)c2)c2nc(NC(=O)N3CCC(C)(O)CC3)[nH]c12

IC50 (Adenosine receptor A2a [3]): < 100 nM | half-life [2]: > 120 min
SMILES: COc1ccc(-c2ccccc2)c2ncc(NC(=O)N3CCC(C)(O)CC3)nc12

half-life [2]: 19.9 min
SMILES: COCCn1cc(C(=O)Nc2nc3c(OC)ccc(N4CCOCC4)c3s2)cn1

Ki (Adenosine receptor A2a [13]): 0.078 nM | Ki (Adenosine receptor A2b [14]): 5.4 nM | Ratio Ki (Homo sapiens [15]): 230 | Ratio Ki (Homo sapiens [16]): 2490 | IC50 (Adenosine receptor A2a [17]): 17 nM | IC50 (Adenosine receptor A2a [12]): > 200 nM
SMILES: COc1nc(-c2ncco2)nc(N)c1C(=O)NCc1c(Cl)cccc1Cl

IC50 (Adenosine receptor A2a [11]): 77 nM | IC50 (Adenosine receptor A2a [12]): > 200 nM
SMILES: Cc1cccnc1CNC(=O)c1c(N)nc(-c2ccco2)nc1OC[C@H](C)O

half-life [2]: 103 min | Cmax [4]: 733 ng/mL
SMILES: COc1ncc(N2CCOCC2)c2nc(NC(=O)c3cnn(C)c3)[nH]c12

From ChEMBL document CHEMBL4699449, “Adenosine A Receptor Antagonists for Cancer Immunotherapy” (J Med Chem, 2020)
